The source of these data is US20260055114A1, “IMIDAZO[1,2-B]PYRIDAZINE INHIBITORS OF CYCLIN-DEPENDENT KINASES” (H. LEE MOFFITT CANCER CENTER AND RESEARCH INSTITUTE, INC., priority 2022, published 2026).

One experiment has as its system CCNK. The experiment is described as follows: CCNK degradation (DC50, Dmax). It is filed as cell-based. As to conditions: for Dmax (%): CCNK degradation.
Another experiment deals with MDA-MB-231 cell line. The experiment is described as follows: Antiproliferative activity, MDA-MB-231 cell line (GI50). It is filed as cell-based. As to conditions: Homo sapiens.
A further experiment addresses CDK12 (Homo sapiens, UniProt Q9NYV4). The experiment is described as follows: Inhibition of cyclin-dependent kinase 12 (% enzyme activity at 1 uM and IC50). It counts as biochemical. As to conditions: for remaining activity at 1 µM: 1 uM compound.

By DC50 is commonly meant the concentration giving 50% degradation. Low readings indicate degradation at low concentration, high ones degradation only at high concentration. Usually GI50 stands for the concentration at which growth is held to half of that of the control. Read a high GI50 as less potent growth inhibition. Broadly, the IC50 is the concentration that inhibits the measured activity by half. What is called remaining activity is the signal under treatment as a percentage of the control signal.

Chain of CDK12 (Q9NYV4 whole entry): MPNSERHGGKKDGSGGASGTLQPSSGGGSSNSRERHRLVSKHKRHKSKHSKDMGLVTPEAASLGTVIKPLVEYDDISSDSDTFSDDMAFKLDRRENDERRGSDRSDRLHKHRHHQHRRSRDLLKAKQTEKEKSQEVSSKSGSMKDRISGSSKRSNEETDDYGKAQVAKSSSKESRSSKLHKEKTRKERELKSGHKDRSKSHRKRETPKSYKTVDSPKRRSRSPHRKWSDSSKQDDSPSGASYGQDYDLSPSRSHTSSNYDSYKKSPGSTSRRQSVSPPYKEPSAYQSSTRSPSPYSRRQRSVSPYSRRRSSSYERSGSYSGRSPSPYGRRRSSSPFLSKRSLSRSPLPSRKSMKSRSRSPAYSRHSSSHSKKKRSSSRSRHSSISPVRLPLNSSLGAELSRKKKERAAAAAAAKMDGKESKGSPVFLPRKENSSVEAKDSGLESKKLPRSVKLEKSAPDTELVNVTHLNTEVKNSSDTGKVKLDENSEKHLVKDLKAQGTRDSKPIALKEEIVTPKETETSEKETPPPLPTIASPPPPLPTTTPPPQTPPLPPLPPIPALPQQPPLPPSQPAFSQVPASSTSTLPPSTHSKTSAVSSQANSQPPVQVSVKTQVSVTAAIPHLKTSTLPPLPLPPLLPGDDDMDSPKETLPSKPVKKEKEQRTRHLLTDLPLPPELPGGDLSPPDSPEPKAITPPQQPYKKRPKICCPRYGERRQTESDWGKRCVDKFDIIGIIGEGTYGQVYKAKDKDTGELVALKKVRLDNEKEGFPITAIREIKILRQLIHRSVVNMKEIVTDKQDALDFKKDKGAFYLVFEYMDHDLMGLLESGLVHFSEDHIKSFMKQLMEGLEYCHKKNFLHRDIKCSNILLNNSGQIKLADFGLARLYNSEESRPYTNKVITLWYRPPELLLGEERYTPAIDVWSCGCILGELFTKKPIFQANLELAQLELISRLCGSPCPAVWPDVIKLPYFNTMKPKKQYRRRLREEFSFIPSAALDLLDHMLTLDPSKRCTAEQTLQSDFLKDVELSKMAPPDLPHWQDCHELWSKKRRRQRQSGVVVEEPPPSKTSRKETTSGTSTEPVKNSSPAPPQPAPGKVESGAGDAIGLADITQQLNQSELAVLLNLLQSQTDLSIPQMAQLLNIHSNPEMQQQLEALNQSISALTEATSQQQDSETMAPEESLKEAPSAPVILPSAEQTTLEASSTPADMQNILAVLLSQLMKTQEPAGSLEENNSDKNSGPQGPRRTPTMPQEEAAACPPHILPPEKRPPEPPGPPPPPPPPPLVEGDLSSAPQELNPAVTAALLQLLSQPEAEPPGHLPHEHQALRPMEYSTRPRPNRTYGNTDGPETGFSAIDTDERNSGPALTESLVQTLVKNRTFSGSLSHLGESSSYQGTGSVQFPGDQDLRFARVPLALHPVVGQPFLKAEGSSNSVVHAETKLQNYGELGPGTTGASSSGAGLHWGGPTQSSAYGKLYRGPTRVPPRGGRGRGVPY
Chain of CDK12 (O75909 whole entry partner): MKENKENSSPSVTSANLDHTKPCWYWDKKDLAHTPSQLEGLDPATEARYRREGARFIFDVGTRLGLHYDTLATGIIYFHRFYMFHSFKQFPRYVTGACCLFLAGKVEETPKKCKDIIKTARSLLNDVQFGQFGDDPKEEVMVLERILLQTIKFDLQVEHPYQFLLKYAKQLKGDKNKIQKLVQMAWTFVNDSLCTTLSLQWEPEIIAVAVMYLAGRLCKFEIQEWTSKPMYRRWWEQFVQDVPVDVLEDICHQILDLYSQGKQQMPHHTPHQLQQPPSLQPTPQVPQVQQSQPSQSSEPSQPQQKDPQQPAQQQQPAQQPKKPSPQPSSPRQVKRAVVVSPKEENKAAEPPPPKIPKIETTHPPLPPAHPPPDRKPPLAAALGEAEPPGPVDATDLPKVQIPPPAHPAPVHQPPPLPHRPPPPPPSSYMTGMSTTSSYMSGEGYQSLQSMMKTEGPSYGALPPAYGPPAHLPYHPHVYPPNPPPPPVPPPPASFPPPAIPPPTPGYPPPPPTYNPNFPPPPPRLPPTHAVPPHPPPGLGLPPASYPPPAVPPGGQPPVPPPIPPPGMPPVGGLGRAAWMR

Regarding `NC1CCN(c2cc(NCc3nc4cccc(Cl)c4[nH]3)c3ncc(-c4ccsc4)n3n2)C1` (centres unmarked) [Cmpd 69, 6-(3-aminopyrrolidin-1-yl)-N-((7-chloro-1H-benzo[d]imidazol-2-yl)methyl)-3-(thiophen-3-yl) imidazo[1,2-b]pyridazin-8-amine], in the experiment on CCNK, the 50% degradation concentration (DC50) was determined as 150 nM and the “Dmax (%)” value is on record as 85%. In the experiment with MDA-MB-231 cell line, this compound had a concentration for 50% growth inhibition (GI50) of 92 nM. For the same compound, the IC50 at CDK12 is 57 nM.

`CN1CCN(c2cc(NCc3nc4cc(Cl)c(Cl)cc4[nH]3)c3ncc(-c4ccsc4)n3n2)CC1` [Cmpd 63, N-((5,6-dichloro-1H-benzo[d]imidazol-2-yl)methyl)-6-(4-methylpiperazin-1-yl)-3-(thiophen-3-yl) imidazo[1,2-b]pyridazin-8-amine]: in the experiment with CCNK, the 50% degradation concentration (DC50) stood at 180 nM and the “Dmax (%)” value was found to be 100%. The compound further returned a GI50 in the experiment on MDA-MB-231 cell line of 78 nM. This compound also had an IC50 at CDK12 of 2010 nM.

On to `Cc1cc(-c2cnc3c(NCc4nc5c(C)ccnc5[nH]4)cc(N4CCN(C)CC4)nn23)cs1` [Cmpd 90, N-((7-methyl-3H-imidazo[4,5-b]pyridin-2-yl)methyl)-6-(4-methylpiperazin-1-yl)-3-(5-methylthiophen-3-yl) imidazo[1,2-b]pyridazin-8-amine], for which, in the experiment with CCNK, the DC50 came out at 10000 nM. Further, in the experiment on MDA-MB-231 cell line, the GI50 was determined as 4160 nM. For the same compound, on CDK12, the IC50 is 1410 nM and the remaining activity at 1 µM was determined as 36%.

In the experiment with CCNK, `Cc1cc(-c2cnc3c(NCc4nc5c(C)ccnc5[nH]4)cc(N4CCOCC4)nn23)cs1` [Cmpd 91, N-((7-methyl-3H-imidazo[4,5-b]pyridin-2-yl)methyl)-3-(5-methylthiophen-3-yl)-6-morpholinoimidazo[1,2-b]pyridazin-8-amine] gave a half-maximal degradation concentration (DC50) of 10000 nM. Besides, the concentration for 50% growth inhibition (GI50) with MDA-MB-231 cell line is 3940 nM. Besides, on CDK12, the remaining activity at 1 µM was 103%.

`CC(C)n1cc(-c2cnc3c(NCc4nc5c(F)c(F)ccc5[nH]4)cc(N4CCOCC4)nn23)cn1` [Cmpd 24, N-((4,5-difluoro-1H-benzo[d]imidazol-2-yl)methyl)-3-(1-isopropyl-1H-pyrazol-4-yl)-6-morpholinoimidazo[1,2-b]pyridazin-8-amine]: in the experiment on CCNK, the DC50 was 2100 nM and the “Dmax (%)” value stood at 65%. Besides, growth in the experiment on MDA-MB-231 cell line was halved (GI50) at 10000 nM. Besides, on CDK12, the 50% inhibitory concentration (IC50) stood at 1270 nM and the remaining activity at 1 µM turned out to be 60%.

Take `FC(F)n1cc(-c2cnc3c(NCc4nc5cc(Cl)c(Cl)cc5[nH]4)cc(N4CCNCC4)nn23)cn1` [Cmpd 43, N-((5,6-dichloro-1H-benzo[d]imidazol-2-yl)methyl)-3-(1-(difluoromethyl)-1H-pyrazol-4-yl)-6-(piperazin-1-yl) imidazo[1,2-b]pyridazin-8-amine]: in the experiment on CCNK, the half-maximal degradation concentration (DC50) was determined as 150 nM and the “Dmax (%)” value is on record as 100%. The compound also came in with a GI50 with MDA-MB-231 cell line of 49 nM. The compound also registered an IC50 on CDK12 of 292 nM.

The compound `Cc1noc(C)c1-c1cnc2c(NCc3nc4cc(Cl)c(Cl)cc4[nH]3)cc(N3CCOCC3)nn12` [Cmpd 100, N-((5,6-dichloro-1H-benzo[d]imidazol-2-yl)methyl)-3-(3,5-dimethylisoxazol-4-yl)-6-morpholinoimidazo[1,2-b]pyridazin-8-amine] came in with a DC50 in the experiment with CCNK of 10000 nM. In the experiment on MDA-MB-231 cell line, this compound displayed a GI50 of 2030 nM. In addition, at CDK12, the half-maximal inhibitory concentration (IC50) is 3000 nM and the remaining activity at 1 µM amounted to 73%.

As to `Fc1cccc2[nH]c(CNc3cc(N4CCOCC4)nn4c(-c5cnn(C(F)F)c5)cnc34)nc12` [Cmpd 52, 3-(1-(difluoromethyl)-1H-pyrazol-4-yl)-N-((4-fluoro-1H-benzo[d]imidazol-2-yl)methyl)-6-morpholinoimidazo[1,2-b]pyridazin-8-amine], in the experiment on CCNK, the DC50 was 30 nM and the “Dmax (%)” value was 80%. For the same compound, it took 390 nM to inhibit growth in the experiment with MDA-MB-231 cell line by half (GI50). Further, at CDK12, the IC50 came out at 359 nM and the remaining activity at 1 µM was 23%.

Consider `CN1CCN(c2cc(NCc3nc4c(F)c(F)ccc4[nH]3)c3ncc(-c4cnn(C(F)F)c4)n3n2)CC1` [Cmpd 54, N-((4,5-difluoro-1H-benzo[d]imidazol-2-yl)methyl)-3-(1-(difluoromethyl)-1H-pyrazol-4-yl)-6-(4-methylpiperazin-1-yl) imidazo[1,2-b]pyridazin-8-amine], for which, in the experiment on CCNK, the DC50 amounted to 110 nM and the “Dmax (%)” value was 85%. The compound further gave a 50% growth inhibitory concentration (GI50) with MDA-MB-231 cell line of 440 nM. Further, inhibition at CDK12 was half-maximal at 175 nM (IC50).

Compound `Cc1cc(-c2cnc3c(NCc4nc5cc(Cl)c(Cl)cc5[nH]4)cc(N4CCN(C)CC4)nn23)cs1` [Cmpd 87, N-((5,6-dichloro-1H-benzo[d]imidazol-2-yl)methyl)-6-(4-methylpiperazin-1-yl)-3-(5-methylthiophen-3-yl) imidazo[1,2-b]pyridazin-8-amine] registered a DC50 in the experiment on CCNK of 10000 nM. In addition, the concentration for 50% growth inhibition (GI50) with MDA-MB-231 cell line amounted to 7360 nM. The remaining activity at 1 µM at CDK12 turned out to be 82%.

Regarding `CC1(C)CN(c2cc(NCc3nc4cc(Cl)c(Cl)cc4[nH]3)c3ncc(-c4cnn(C(F)F)c4)n3n2)CCO1` [Cmpd 48, N-((5,6-dichloro-1H-benzo[d]imidazol-2-yl)methyl)-3-(1-(difluoromethyl)-1H-pyrazol-4-yl)-6-(2,2-dimethylmorpholino) imidazo[1,2-b]pyridazin-8-amine], in the experiment with CCNK, half-maximal degradation (DC50) was put at 200 nM and the “Dmax (%)” value stood at 100%. Also, in the experiment on MDA-MB-231 cell line, halving of growth (GI50) required 130 nM. On CDK12, the IC50 was 2440 nM.
